In assay [1] the test system is human telomerase (extract of HL60 cells enriched in telomerase activity). Description: TRAP assay of telomerase activity (extension of oligonucleotide TS, PCR amplification). It is filed as biochemical. The conditions noted are these: compounds at 10, 1, 0.1 and 0.01 μg/ml. As to the method: The antitelomerase biological activity is determined by the following experimental protocol:
Preparation of the Extract Enriched in Human Telomerase Ectivity:
The leukemia line HL60 is obtained from ATCC (American Type Culture Collection, Rockville USA). The cells are cultured in suspension in RPMI 1640 medium containing L-Glutamine at 2 mM, Penicillin 200 U/ml, streptomycin 200 μg/ml, gentamycin 50 μg/ml and supplemented with 10% heat-inactivated fetal calf serum.
An aliquot of 10^5 cells is centrifuged at 3000×G and the supernatant discarded. […]
The samples are then analyzed by electrophoresis on 12% acrylamide gel in a 1×TBE buffer for 1 hour at a voltage of 200 volts, with the aid of a Novex electrophoresis system. […]
The analysis and the quantification of the reaction products are carried out with the aid of an InstantImager apparatus (Pacard).
For each compound concentration tested, the results are expressed as percentage inhibition of the reaction and calculated from the untreated enzymatic control and from the enzyme-free sample (blank) according to the following formula: (Compound Value−blank value/enzymatic control value−blank value)×100. […]
A compound is considered to be active as an antitelomerase agent when the quantity inhibiting 50% of the telomerase reaction is less than 5 μM.

The test system of assay [2] is G-quadruplex of oligonucleotide GGGTTAGGGTTAGGGTTAGGG (3.5 repeats of the human telomeric motif). Description: G-quadruplex stabilisation, fluorescence Tm of FAM+DABCYL oligonucleotide. It is filed as binding. Particulars: test product 1 μM, oligonucleotide 0.2 μM, 0.1 M LiCl, 10 mM cacodylate buffer pH 7.6; reference Tm 44° C. The source says:
The G-quadruplex stabilizing activity may be determined by a method using the formation of a complex with fluorescein, as described below.
All the oligonucleotides, modified or otherwise, were synthesized by Eurogentec SA, Seraing, Belgium. The oligonucleotide FAM+DABCYL carries the catalog reference OL-0371–0802. It has the sequence: […] (SEQ ID NO:1) corresponding to 3.5 repeats of the human telomeric motif (strand rich in G). The fluorescein is chemically attached to the 5′ end, and the DABCYL to the 3′ end, as described by Eurogentec. The concentration of the samples is checked by spectrophotometry, recording the absorbance spectrum between 220 and 700 nm and using the molar extinction coefficient provided by the supplier. […]
All the measurements of fluorescence were carried out on a Spex Fluorolog DM1B apparatus, using an excitation line width of 1.8 nm and an emission line width of 4.5 nm. […] The oligonucleotide alone was analyzed at 20, 30, 40, 50, 60, 70 and 80° C. The emission spectra are recorded using an excitation wavelength of 470 nm. The excitation spectra are recorded using either 515 nm or 588 nm as emission wavelength. […] A high extinction (80–90%) of the fluorescence of fluorescein at room temperature is observed, in agreement with an intramolecular folding of the oligonucleotide at 20° C. in the form of a G-quadruplex. […]

In turn, `CSc1nc(NCCN(C)C)nc(Nc2ccc3nc(C)cc(N)c3c2)n1` [Example 1-1, N6-[6-(2-dimethylaminoethylamino)-4-methylsulfanyl-[1,3,5]triazin-2-yl]-2-methylquinoline-4,6-diamine] gave an IC50 in assay [1] of 790 nM. Also, the “G-4 ΔTm” value in assay [2] came out at 6 °C.
The like results for “N6-[(6-(3-dimethylaminopropylamino)-4-diethylamino-[1,3,5]triazin-3-yl]-2-methylquinoline-4,6-diamine [Example 2-1]” were, in that order, 900 nM and 7.9 °C.

The record behind these values is patent publication US7179816B2, “Chemical derivatives and their application as antitelomerase agents” (Aventis Pharma S.A., priority 2001, dated 2007).
